In paper PMC9602792, “Preclinical evaluation of the epithelial sodium channel inhibitor AZD5634 and implications on human translation” (American Journal of Physiology - Lung Cellular and …, 2022):

Biological target: T1, ENaC (Homo sapiens, UniProt P37088+P51168+P51170)
T1 construct: host or cells: primary normal human bronchial epithelial cells, ALI culture
T1 sequence (P37088 1-669): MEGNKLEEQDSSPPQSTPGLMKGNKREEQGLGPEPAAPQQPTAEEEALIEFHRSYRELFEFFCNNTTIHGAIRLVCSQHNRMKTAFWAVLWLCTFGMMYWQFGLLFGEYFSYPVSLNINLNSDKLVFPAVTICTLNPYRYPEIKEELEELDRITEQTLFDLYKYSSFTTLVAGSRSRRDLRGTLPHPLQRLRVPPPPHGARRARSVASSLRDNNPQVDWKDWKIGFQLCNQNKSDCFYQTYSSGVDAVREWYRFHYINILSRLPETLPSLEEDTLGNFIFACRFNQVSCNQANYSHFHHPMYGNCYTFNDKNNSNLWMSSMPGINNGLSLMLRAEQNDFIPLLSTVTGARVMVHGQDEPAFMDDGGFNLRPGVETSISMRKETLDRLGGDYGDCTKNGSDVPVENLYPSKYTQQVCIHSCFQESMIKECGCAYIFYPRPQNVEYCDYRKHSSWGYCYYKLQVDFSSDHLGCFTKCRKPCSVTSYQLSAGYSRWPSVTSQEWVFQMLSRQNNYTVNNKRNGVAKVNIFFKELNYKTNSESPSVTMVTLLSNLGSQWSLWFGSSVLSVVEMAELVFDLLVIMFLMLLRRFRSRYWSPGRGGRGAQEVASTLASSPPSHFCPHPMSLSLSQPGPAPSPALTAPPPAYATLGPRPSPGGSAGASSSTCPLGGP
T1 sequence (P51168 1-640): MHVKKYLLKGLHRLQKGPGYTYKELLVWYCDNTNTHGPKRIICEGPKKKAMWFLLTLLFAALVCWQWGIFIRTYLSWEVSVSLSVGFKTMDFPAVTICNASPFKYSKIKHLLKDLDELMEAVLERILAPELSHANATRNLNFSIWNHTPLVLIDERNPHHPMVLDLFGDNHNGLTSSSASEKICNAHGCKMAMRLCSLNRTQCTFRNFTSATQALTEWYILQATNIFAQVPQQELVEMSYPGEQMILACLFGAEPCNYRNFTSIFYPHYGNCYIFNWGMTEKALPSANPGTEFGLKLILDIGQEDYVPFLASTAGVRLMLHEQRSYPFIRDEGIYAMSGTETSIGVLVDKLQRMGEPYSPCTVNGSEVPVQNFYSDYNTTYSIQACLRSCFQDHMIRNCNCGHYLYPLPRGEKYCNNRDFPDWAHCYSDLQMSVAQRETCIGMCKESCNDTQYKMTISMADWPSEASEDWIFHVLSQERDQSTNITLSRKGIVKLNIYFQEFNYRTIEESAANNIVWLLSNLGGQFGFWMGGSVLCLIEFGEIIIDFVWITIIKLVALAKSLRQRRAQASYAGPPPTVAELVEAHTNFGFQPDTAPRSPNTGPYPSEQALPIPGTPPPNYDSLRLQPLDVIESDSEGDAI
T1 sequence (P51170 1-649): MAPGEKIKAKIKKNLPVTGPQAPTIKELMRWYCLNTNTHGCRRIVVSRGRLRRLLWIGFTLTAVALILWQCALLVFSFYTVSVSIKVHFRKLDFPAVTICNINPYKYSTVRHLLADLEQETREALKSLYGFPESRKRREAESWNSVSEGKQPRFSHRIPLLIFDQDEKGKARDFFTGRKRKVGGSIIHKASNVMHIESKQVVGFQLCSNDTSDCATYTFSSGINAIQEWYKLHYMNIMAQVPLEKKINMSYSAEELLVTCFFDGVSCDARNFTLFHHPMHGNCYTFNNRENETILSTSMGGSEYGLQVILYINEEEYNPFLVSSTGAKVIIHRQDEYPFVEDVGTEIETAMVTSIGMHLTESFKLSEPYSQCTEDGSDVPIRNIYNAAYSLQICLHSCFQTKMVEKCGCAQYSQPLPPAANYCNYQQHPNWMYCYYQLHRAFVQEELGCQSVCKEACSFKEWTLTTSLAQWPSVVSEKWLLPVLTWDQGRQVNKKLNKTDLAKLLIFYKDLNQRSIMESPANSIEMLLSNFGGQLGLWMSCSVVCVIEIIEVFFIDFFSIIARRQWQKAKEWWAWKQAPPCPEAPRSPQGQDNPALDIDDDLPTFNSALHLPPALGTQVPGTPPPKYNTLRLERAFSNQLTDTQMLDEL
Experiment: Ussing chamber Isc in F508del-homozygous CF HBEC cultures
Assay type: cell-based
Experimental: Using previously described techniques ([2], [37]), epithelial cells were harvested from excised lung tissue derived from CF donors homozygous for F508del CFTR, expanded, and grown until confluency was attained. […] To stimulate fresh mucus secretion and formation of an even ASL layer, the cells were washed 48–72 h before experimentation with PneumaCult ALI media (80 µL), added apically, and then aspirated following 30–45 min incubation at 37°C. The washing process was repeated with a 15-min incubation period and the mucus layer was allowed to reestablish, after which the cells were treated with 1 µL of AZD5634 (1 µM, apical), alone and in combination with lumacaftor and ivacaftor (luma/iva; 3 µM/10 µM, basolateral). PBS (1% DMSO, apical) served as a vehicle control. […] Only passage 1 and 2 monolayers were used for these studies.
CFTR-dependent ion transport electrophysiology was measured in HBEC cultures by Isc using modified P2300 Ussing chambers (Physiologic Instruments, San Diego, CA) as previously described ([37], [38]). […] All chambers were maintained at 37°C and agonist stimulation was initiated within 15 min of placement in the chambers.
Descriptive statistics were calculated and means compared using unpaired or paired t tests, or ANOVA, with post hoc analyses conducted for multiple comparisons where appropriate. For analyses of functional anatomy of en bloc trachea, a mixed linear model was used that corrected for within-animal correlation. All tests were two-sided and were computed using GraphPad Prism (GraphPad Software, Inc., La Jolla, CA). P-values <0.05 were considered significant. Statistics are reported as means ± SE, unless indicated otherwise.

incremental Isc change (at 100 nM): −2.7 ± 1.5 | cumulative ΔIsc (at the maximum concentration (10,000 nM)): −12.1 ± 3.5
SMILES: NC(=NCc1ccccc1)NC(=O)c1nc(Cl)c(N)nc1N [benzamil, reference compound]
